Test results as given in US6653294B2, “Use of chitinous materials for inhibiting cellular nitric oxide production” (Food Industry Research & Development Institute, priority 2000, dated 2003).

What was measured:
[1] = test system: activated RAW 264.7 cells; experiment: Measurement of NO production via nitrite detection (Griess) in IFN-γ and LPS activated RAW 264.7 cells; assay type: cell-based, mouse; conditions: for Nitrite Production / Nitrite Production as Percentage of Control: IFN-γ + LPS; for Effect on NO production, in words (Table 2): conditions of Table 2 (2 and 10 μg/ml)
Protocol: (§1) NIH/3T3 (mouse embryo fibroblast, CCRC 60008) and RAW 264.7 (mouse monocyte/macrophage, CCRC 60001) cell lines were obtained from Culture Collection and Research Center (CCRC), Taiwan. Both cell lines were cultured in Dulbecco's modified essential medium (DMEM, GIBCO BRL, Rockville, Md.) containing 1.5 g/L NaHCO3 supplemented with 10% fetal bovine serum (Hyclone, Logan, Utah) and incubated in 5% CO2 at 37° C. Cell cultures were examined for mycoplasma contamination with the fluorescent stain Hoechst 33258 (Hay et al., ATCC Quality Control Methods for Cell Lines, American Type Culture Collection, Manassas, Va., 1992, pp 23-33). All cultures described in the present example were mycoplasma-free.
Two mixtures were prepared. A mixture of collagen type I (rat tail, Sigma, St. Louis, Mo.) was dissolved in 0.1 N acetic acid to produce a 1 mg/ml collagen solution. Chitin was added to 0.1 N acetic acid until a 1 mg/ml mixture was achieved, and the mixture was sonicated for 3 minutes using a Labsonic U sonicator, (Braun Biotech International, Germany). After being autoclaved at 121° C. for 15 minutes, the chitin mixture became a slurry of fine wires. Microtiter tissue culture plates (96-well) were rinsed with Dulbecco's phosphate-buffer saline without Ca^+2 and Mg^+2 (D-PBS, GIBCO BRL). Five microliters of collagen solution or different amounts of the chitin mixture were then added to each well. The plates were then air-dried in a laminar flow hood and stored at 4° C. for up to a week.
Nitric oxide (NO) production was indirectly quantified by measuring the accumulation of nitrite (NO2^−) in the culture media using Griess reagents and sodium nitrite as a standard (Green et al., Anal. Biochem. 126:131-138, 1982; and Ignarro et al., Proc. Natl. Acad. Sci. USA 90:8103-8107, 1993). For nitrite assays, RAW 264.7 cells were subcultured in coated 96-well tissue culture plates at 1×10^5 cells/well and incubated for 24 hours. The culture media were changed to phenol red-free, serum-free DMEM containing 100 U/ml interferon-γ(IFN-γ, recombinant murine; GIBCO BRL) and 100 ng/ml lipopolysaccharide (LPS, Escherichia coli serotype 0128:B12; Sigma). The samples were then tested as described in Rollo et al., J. Leukoc. Biol. 60:397-404, 1996.
To measure the effect of chitin on NO production, cells were subcultured directly in the chitin-coated 96-well tissue culture plates. After overnight incubation, cells became adhered to the bottom of chitin-coated wells. The culture media were removed and replaced with media supplemented with IFN-γ and LPS as described above. After 48 hours incubation, […] of culture supernatants were mixed sequentially with equal volumes of 60 mM sulfanilamide (Sigma) in 3 N HCl and 4 mM N-1-naphthylethylenediamine (Sigma) and then shaken for 5 minutes at room temperature as described in Rollo et al., supra. Nitrite concentration was measured by reading the sample's absorbance at 540 nm using a microplate reader (MRX, Dynex Technologies, Inc., VA).

RAW 264.7 cells = experiment: Cytotoxicity test (MTT cell growth), RAW 264.7; assay type: cell-based, mouse
Protocol: as §1
Two mixtures were prepared. […]
For chitin cytotoxicity experiment, cells were subcultured in 96-well tissue culture plates precoated with different amount of chitin or with collagen at a density of 2000 cells/well and incubated for 48 hours. […] Cytotoxicity was measured using the dye 3-(4,5-dimethylthiazol-2-yl)-2,5-diphenyl tetrazolium bromide (MTT; Merck Co., Germany) and following the methods described in Mosmann, J. Immunol. […]
The cytotoxicity associated with chitin and chitosan was evaluated for both mouse embryonic fibroblast NIH/3T3 cells and mouse monocyte-macrophage RAW 264.7 cells. […]

[2] = 5 μl per well (1 mg/ml) coated, 48 hours

Compound	Nitrite Production ([1]; 2 μg/ml in culture medium) [µM]	Nitrite Production as Percentage of Control ([1]; 2 μg/ml in culture medium) [%]	Nitrite Production ([1]; 10 μg/ml in culture medium) [µM]	Nitrite Production as Percentage of Control ([1]; 10 μg/ml in culture medium) [%]	Effect on NO production, in words (Table 2) [1]	Cytotoxicity (MTT) (RAW 264.7 cells)	Nitrite Production [1, 2] [µM]	Nitrite Production as Percentage of Control [1, 2] [%]	Effect on NO production, in words (Table 1) ([1]; conditions of Table 1)
chitotetraose	63.4 ± 0.5	96.6	61.3 ± 0.6	93.4	–	–	–	–	–
CC(=O)N[C@H]1[C@H](O[C@H]2[C@H](O)[C@@H](NC(C)=O)[C@H](O[C@H]3[C@H](O)[C@@H](NC(C)=O)C(O)O[C@@H]3CO)O[C@@H]2CO)O[C@H](CO)[C@@H](O[C@@H]2O[C@H](CO)[C@@H](O[C@@H]3O[C@H](CO)[C@@H](O[C@@H]4O[C@H](CO)[C@@H](O)[C@H](O)[C@H]4NC(C)=O)[C@H](O)[C@H]3NC(C)=O)[C@H](O)[C@H]2NC(C)=O)[C@@H]1O (stereo partly shown) [chitohexose]	41.3 ± 0.8	63	35.8 ± 2.9	54.5	did substantially decrease NO production	–	–	–	–
CC(=O)N[C@H]1C(O)O[C@H](CO)[C@@H](O)[C@@H]1O (stereo partly shown) [NAGA, N-acetylglucosamine, reference compound]	–	–	66.7 ± 0.9	102	–	not cytotoxic	–	–	–
N[C@H]1C(O)O[C@H](CO)[C@@H](O)[C@@H]1O (stereo partly shown) [glucosamine, reference compound]	–	–	64.3 ± 0.8	98.0	–	not cytotoxic	–	–	–
CC(=O)N[C@@H]1[C@@H](O)[C@H](O[C@@H]2O[C@H](CO)[C@@H](O[C@@H]3O[C@H](CO)[C@@H](O[C@@H]4O[C@H](CO)[C@@H](O[C@@H]5O[C@H](CO)[C@@H](O)[C@H](O)[C@H]5NC(C)=O)[C@H](O)[C@H]4NC(C)=O)[C@H](O)[C@H]3NC(C)=O)[C@H](O)[C@H]2NC(C)=O)[C@@H](CO)O[C@H]1O [chitopentose]	47.0 ± 0.5	70.6	42.7 ± 1.2	65.1	did substantially decrease NO production	–	–	–	–
CC(=O)N[C@H]1[C@H](O[C@H]2[C@H](O)[C@@H](NC(C)=O)C(O)O[C@@H]2CO)O[C@H](CO)[C@@H](O)[C@@H]1O (stereo partly drawn) [chitobiose, 2-acetamido-2-deoxy-4-O-(2-acetamido-2-deoxy-b-D-glucopyranosyl)-D-glucopyranose]	64.9 ± 0.8	98.9	64.1 ± 0.9	97.7	–	–	–	–	–
Collagen: collagen type I (rat tail, Sigma), coating comparison [reference compound]	–	–	–	–	–	–	73.4 ± 0.9	99	did not significantly affect NO production
CC(=O)N[C@H]1[C@H](O[C@H]2[C@H](O)[C@@H](NC(C)=O)C(O)O[C@@H]2CO)O[C@H](CO)[C@@H](O[C@@H]2O[C@H](CO)[C@@H](O)[C@H](O)[C@H]2NC(C)=O)[C@@H]1O (stereo partly shown) [chitotriose]	61.5 ± 0.9	93.8	61.1 ± 0.2	93.1	–	–	–	–	–
